Test results published in US12275985B2, “Redox labeled oligonucleotide probes and their use” (ABBOTT DIAGNOSTICS SCARBOROUGH, INC., priority 2016, dated 2025).

Tests used:
[1] = DPV detection of cleaved redox labels in RPA reactions (peak potential and current); format: physicochemical; details: for E (DPV peak potential of cleaved label) / ΔE vs MB: label cleaved from Fpg probe in RPA, DPV
Protocol: DNA and RNA amplification by RPA can be monitored in real-time or by end-product detection using the TwistAmp® basic kit with DPV detection. Briefly, a clinical sample (e.g., a clinical swab or wipe) is added to an RPA reagent mixture specific for a target nucleic acid sequence, the reagent mixture containing an Exo or Fpg oligonucleotide probe labeled with a redox-moiety, such as those described above, and maintained at 37° C.-42° C. for a time sufficient for amplification. Incubation in the presence of an ExoIII or Fpg exonuclease results in cleavage of probe/target DNA hybrids which allows for liberation of the redox-moiety (see FIG. 14). The liberated redox-moiety can be detected by, for example, amperometry, voltammetry (e.g., Differential Pulse voltammetry), and AC-impedance. Where the redox label has been cleaved from the probe/target complex (i.e., a sample positive for the target nucleic acid) a peak in current is observed at a voltage which corresponds to the oxidation potential of the label. Where the redox label has not been released from the oligonucleotide probe (i.e., a sample negative for the target nucleic acid), no peak is observed.
A “DPV output” of a given RPA reaction is determined by measuring the signal current generated by the redox-label present in the reaction in response to applied potentials. The DPV procedure requires the definition of several key parameters: interval period (related to scan rate), step potential, amplitude of the pulse (amp) and time of the pulse (pulse width). An example of these settings were: interval period 0.1 s, step potential 5 mV, pulse amplitude 75 mV and pulse width 30 ms. In addition to these parameters for the actual measurement, the DPV protocol also entails a series of 3 initial sequences of potential changes (“sweeps”) the output of which is not being directly quantified.
At FIG. 1, a method for electrochemical detection of an amplified nucleic acid target sequence according to an embodiment of the present invention is show. […] In the presence of the target, multiple copies of the DNA strand complementary to the labeled oligonucleotide probe are generated using a nucleic acid amplification method, such as, for example, PCR, RPA (shown), or NEAR. Following amplification, the DNA strand complementary to the labeled oligonucleotide probe anneal (i.e., hybridize) with the probe and form a double-stranded substrate. In the presence of a nuclease, the redox moiety (i.e., redox label) is enzymatically cleaved from (e.g., separated from) from the double-stranded substrate effecting release of the redox label. Once cleaved, the redox moiety (i.e., redox label) is able to diffuse and interact with the electrode and detection of the redox moiety is achieved by, for example, DPV, whereby a potential window (E) is swept in a stepwise fashion, and the Faradaic current (I) associated with reduction of the label is recorded. Diffusing redox labels that have been enzymatically released from oligonucleotide probes generate a larger current response, thus enabling electrochemical detection of target amplification.
For example, during initial studies on Alere HeartCheck electrodes, redox moieties with a reduction potential (versus a Ag/AgCl reference electrode) of between approximately […] were considered optimal for multiplexing (FIG. 2). In order to resolve two redox moieties which fall within this window, a difference (ΔE) of approximately ≥50 mV in their peak potential is predicted to be sufficient. Thus, in the case of the HeartCheck electrode, there is a theoretical maximum multiplexing capacity of 5 labels within this window. Note however that alternative (electrode-dependent) windows for detection may be determined.

[2] = tested on: InfA[PA] and InfB[PA] DNA; experiment: Duplexed RPA detection with 1:1 mixture of MB- and PZ9-labelled probes on HeartCheck sensor; design: species or system Influenza A and Influenza B; details: duplexed detection at 15 min, 10^7 copies of each target, third order polynomial baseline correction
[3] = Aqueous solubility of redox label; format: physicochemical

SMILES	reduction peak potential ([1]; vs Ag/AgCl during DPV in an RPA context)	Emax of calculated Gaussian curve [2]	E (DPV peak potential of cleaved label) [1]	ΔE vs MB [1]	aqueous solubility [3]
CN(C)c1ccc2nc3ccc(N(C)C)cc3[s+]c2c1.[Cl-] [Methylene Blue, 3,7-bis(Dimethylamino)-phenothiazin-5-ium chloride]	−320 mV	−0.3731 V			
C[N+](C)=c1ccc2nc3c(cc(NCCC(=O)O)c4ccccc43)oc-2c1.[Cl-] [PO1, N-(5-(2-carboxyethylamino)-9H-benzo[a]phenoxazin-9-ylidene)-N-methylmethanaminium chloride]			~−0.52 V	~−140 mV	
CC/[N+](CCCS(=O)(=O)[O-])=c1/ccc2nc3ccc(N(C)CCC(=O)O)cc3oc-2c1 [PO2, N-(3-(N-methyl(2-carboxyethyl)amino)phenoxazin-7-ylidene)-N-ethyl(3-sulfonatopropyl)aminium chloride]			~−0.44 V	~−60 mV	good aqueous solubility
CN(CCCC(=O)O)c1ccc2nc3ccc(N(C)c4ccccc4)cc3[s+]c2c1.[Cl-] [PZ9]		−0.3046 V		~+60 mV	
